According to PubChem BioAssay AID304 (DTP/NCI, 2004):
Where “and” joins values, the source holds several entries; their conditions need not be identical. Equal values may be shown once. Inconclusive results and toxic doses are left out.

Test system: Lymphosarcoma Mecca ip in C3AKF1 mice, survival T/C%
Assay: NCI In Vivo Anticancer Drug Screen. Data for tumor model Lymphosarcoma Mecca (intraperitoneal) in C3AKF1 (CHKRF1) mice
Settings: endpoint: survival time, mean or median, schedule: Q01DX010 (ip), higher = longer survival
Protocol: The antitumor activity of compounds was measured in mice bearing transplantable tumors. Survival or tumor size were measured and the results are expressed as the measurement made in the treated group (T) divided by the measurement made in the vehicle treated control group (C). The tumor model used in this assay is Lymphosarcoma Mecca (intraperitoneal) in C3AKF1 (CHKRF1) mice

[1] = dose: 25.0 mg/kg/injection, vehicle: saline
[2] = dose: 50.0 mg/kg/injection, vehicle: saline
[3] = dose: 100.0 mg/kg/injection, vehicle: saline
[4] = dose: 200.0 mg/kg/injection, vehicle: saline
[5] = dose: 400.0 mg/kg/injection, vehicle: saline
[6] = dose: 18.8 mg/kg/injection, vehicle: saline
[7] = dose: 37.5 mg/kg/injection, vehicle: saline
[8] = dose: 75.0 mg/kg/injection, vehicle: saline
[9] = dose: 62.5 mg/kg/injection, vehicle: saline
[10] = dose: 125.0 mg/kg/injection, vehicle: saline
[11] = dose: 250.0 mg/kg/injection, vehicle: saline
[12] = dose: 4.0 mg/kg/injection, vehicle: saline
[13] = dose: 8.0 mg/kg/injection, vehicle: saline
[14] = dose: 16.0 mg/kg/injection, vehicle: saline
[15] = dose: 32.0 mg/kg/injection, vehicle: saline
[16] = dose: 1.0 mg/kg/injection, vehicle: saline
[17] = dose: 2.0 mg/kg/injection, vehicle: saline

**Q.** For `CS(=O)(=O)OCC(O)C(O)C(O)C(O)COS(C)(=O)=O` (stereo not given), which T/C [1] is on record?
**A.** The T/C was 111 % of control.

**Q.** What about the T/C [2] of the same molecule?
**A.** The T/C was 100 % of control and 111 % of control.

**Q.** What about the T/C [3] of the same molecule?
**A.** Its T/C is 100 % of control and 116 % of control.

**Q.** And the T/C [4]?
**A.** Its T/C is 100 % of control and 122 % of control.

**Q.** What about the T/C [5] of the same molecule?
**A.** The T/C was 110 % of control.

**Q.** With `N#CCSc1ncnc2nc[nH]c12` as the molecule, how does the T/C (dose: 15.0 mg/kg/injection, vehicle: saline) read?
**A.** Its T/C is 95 % of control and 119 % of control.

**Q.** And the T/C (dose: 30.0 mg/kg/injection, vehicle: saline)?
**A.** Its T/C is 90 % of control and 95 % of control.

**Q.** And the T/C (dose: 60.0 mg/kg/injection, vehicle: saline)?
**A.** The T/C was 90 % of control and 95 % of control.

**Q.** And the T/C (dose: 120.0 mg/kg/injection, vehicle: saline)?
**A.** The T/C was 95 % of control.

**Q.** Which T/C (dose: 4.7 mg/kg/injection, vehicle: saline) does the source give for `CO[C@@H]1[C@@H](OC2OC(C)C(OC3CC(C)(O)C(OC(=O)CC(C)C)C(C)O3)C(N(C)C)C2O)[C@@H](CC=O)C[C@@H](C)C(=O)/C=C/C2O[C@H]2C[C@@H](C)OC(=O)C[C@H]1OC(C)=O` (stereo not given in full) here?
**A.** Its T/C is 90 % of control.

**Q.** What about the T/C (dose: 9.4 mg/kg/injection, vehicle: saline) of the same molecule?
**A.** Its T/C is 100 % of control.

**Q.** And the T/C [6]?
**A.** Its T/C is 90 % of control.

**Q.** And the T/C [7]?
**A.** Its T/C is 90 % of control and 95 % of control.

**Q.** And the T/C [8]?
**A.** The T/C was 86 % of control.

**Q.** `CS(=O)(=O)OCCCl` was tested. Which T/C [6] did it give?
**A.** The T/C was 100 % of control.

**Q.** What about the T/C [7] of the same molecule?
**A.** The T/C was 113 % of control.

**Q.** And the T/C [8]?
**A.** Its T/C is 100 % of control.

**Q.** What does the source list for `COc1ccc2c(c1OC)C(=O)O[C@@H]2[C@H]1c2c(cc3c(c2OC)OCO3)CCN1C`?
**A.** T/C (dose: 31.3 mg/kg/injection, vehicle: saline): 100 % of control and 105 % of control; T/C [9]: 100 % of control and 116 % of control; T/C [10]: 100 % of control and 116 % of control; T/C [11]: 94 % of control and 100 % of control

**Q.** Which results are given for `O=NN(CCCl)C(=O)NCCCl`?
**A.** T/C (dose: 6.25 mg/kg/injection, vehicle: saline): 275 % of control and 303 % of control; T/C (dose: 12.5 mg/kg/injection, vehicle: saline): 151 % of control and 155 % of control; T/C [1]: 92 % of control and 115 % of control

**Q.** `COC1C(OC(=O)/C=C/C=C/C=C/C=C/C(=O)O)CCC2(CO2)C1C1(C)OC1CC=C(C)C` (stereo not given) was tested. Which T/C [1] did it give?
**A.** The T/C was 100 % of control.

**Q.** And the T/C [2]?
**A.** Its T/C is 100 % of control and 110 % of control.

**Q.** What about the T/C [3] of the same molecule?
**A.** Its T/C is 100 % of control and 104 % of control.

**Q.** What about the T/C [4] of the same molecule?
**A.** The T/C was 90 % of control.

**Q.** Which results are given for `CC(CCC(C)OS(C)(=O)=O)OS(C)(=O)=O` (stereo not given)?
**A.** T/C [12]: 109 % of control; T/C [13]: 100 % of control; T/C [14]: 114 % of control; T/C [15]: 95 % of control

**Q.** For `CN(C)/N=N/c1nc[nH]c1C(N)=O`, which T/C [5] is on record?
**A.** The T/C was 155 % of control.

**Q.** `Nc1nc2n[nH]nc2c(=O)[nH]1` was tested. Which T/C (dose: 25.0 mg/kg/injection, vehicle: alkali diluted with saline) did it give?
**A.** The T/C was 115 % of control.

**Q.** What about the T/C (dose: 50.0 mg/kg/injection, vehicle: alkali diluted with saline) of the same molecule?
**A.** Its T/C is 88 % of control and 110 % of control.

**Q.** What does the source list for `Nc1nc(N)c2nc(CNc3ccc(C(=O)NC(CCC(=O)O)C(=O)O)cc3)cnc2n1` (stereo not given)?
**A.** T/C (dose: 0.1 mg/kg/injection, vehicle: other): 162 % of control and 215 % of control; T/C (dose: 0.2 mg/kg/injection, vehicle: other): 155 % of control and 190 % of control

**Q.** For `c1ccc(CNc2ncnc3[nH]ncc23)cc1`, which T/C [13] is on record?
**A.** The T/C was 151 % of control.

**Q.** And the T/C [14]?
**A.** Its T/C is 100 % of control and 118 % of control.

**Q.** And the T/C [15]?
**A.** The T/C was 90 % of control.

**Q.** How did the T/C [16] turn out when `S=P(N1CC1)(N1CC1)N1CC1` was run?
**A.** Its T/C is 270 % of control.

**Q.** And the T/C [17]?
**A.** The T/C was 90 % of control.

**Q.** And the T/C [12]?
**A.** Its T/C is 109 % of control.

**Q.** Which results are given for `CC1CN1P(=S)(N1CC1C)N1CC1C` (stereo not given)?
**A.** T/C (dose: 1.25 mg/kg/injection, vehicle: saline): 100 % of control; T/C (dose: 2.5 mg/kg/injection, vehicle: saline): 100 % of control and 105 % of control; T/C (dose: 5.0 mg/kg/injection, vehicle: saline): 100 % of control; T/C (dose: 10.0 mg/kg/injection, vehicle: saline): 100 % of control and 105 % of control; T/C (dose: 20.0 mg/kg/injection, vehicle: saline): 100 % of control

**Q.** How did the T/C [9] turn out when `Cc1cn(C2OC(CO)C(O)C2O)c(=O)[nH]c1=O` (stereo not given) was run?
**A.** The T/C was 105 % of control.

**Q.** And the T/C [10]?
**A.** Its T/C is 111 % of control.

**Q.** What about the T/C [11] of the same molecule?
**A.** The T/C was 105 % of control.

**Q.** And the T/C (dose: 500.0 mg/kg/injection, vehicle: saline)?
**A.** Its T/C is 111 % of control.

**Q.** With `O=C(Nc1ccc(C2=NCCCN2)cc1)c1ccc(C(=O)Nc2ccc(C3=NCCCN3)cc2)cc1` as the molecule, how does the T/C [16] read?
**A.** Its T/C is 111 % of control and 116 % of control.

**Q.** And the T/C [17]?
**A.** The T/C was 116 % of control and 122 % of control.

**Q.** What about the T/C [13] of the same molecule?
**A.** Its T/C is 150 % of control.
